Laboratory results: publication PMC7093532, “Iron bioavailability from bouillon fortified with a novel ferric phytate compound: a stable iron isotope study in healthy women (part II)” (Scientific Reports, 2020)
Like-named read-outs stand apart in the source and are kept apart here.

Tests used:
[1] = cited from earlier work
[2] = Stable iron isotope absorption study in healthy adult women (erythrocyte incorporation of oral isotopic labels)
Description: The human study was a controlled, single blind (to the subjects), single center trial. Healthy adult women (n = 23) consumed 6 different types of investigational products in random order with a cross-over design: bouillon with and without corn porridge fortified either with [^58Fe]-PA-HCP, [^54Fe]-SO4, or [^57Fe]-PP, resulting in 6 different test meal sequences. The sequences built up a Partial Williams Latin square, balanced for first order carry over. The experimental phase lasted for a period of 33 days.
The human study was conducted between December 2016 and February 2017 at the Laboratory of Human Nutrition of the ETH Zurich. […] The study procedure was explained in detail and written informed consent was obtained. An interview was conducted, weight and height were measured and a venous blood sample was drawn to assess whether participants fulfilled inclusion and exclusion criteria (Hb, Ht, number of erythrocytes, PF). […] The labelled iron-fortified test meals were administered on days 1, 2, 3, 17, 18 and 19 (Fig. 3). Test meals were administered between 07:00 and 09:30 after an overnight fast. The participants consumed the complete test meal and a glass of 300 mL ultrapure water in the presence of the investigators. […] Quantitative consumption of the investigational product was ensured by washing the glass test meal container 2 times with 10 mL of ultrapure water. After consuming the test meals, participants were not allowed to eat or drink for 3 h.
Venous blood samples were collected after an overnight fast on day 1 (baseline), day 17 and day 33 (endpoint) to determine iron status and iron absorption from the test meals. Iron absorption was determined by quantifying the incorporation of oral stable isotopic labels into erythrocytes. Adverse events and concomitant medication were inquired and documented during the entire study. All experiments were performed in accordance with relevant guidelines and regulations. The study was approved by the ethics Committee of the Canton Zurich, Switzerland (KEK-ZH-Nr. 2016–01472). Participants gave informed written consent before participation in the study and received a symbolic reimbursement at the end of the trial. The study was registered at clinicaltrials.gov as NCT02993835 on December 15, 2016.
The bouillon meal was prepared from 300 g ultrapure water and 7 g commercial vegetable bouillon powder (Maggi Gemüse Bouillon, Maggi, Singen, Germany) per serving. The bouillon contained iodized salt, dehydrated vegetables (onion, carrot, spinach, celery), yeast extracts, white sugar, potato starch, vegetable extracts (carrot, leek, onion, garlic), sunflower seed oil, natural flavours, spices (curcumin, paprika, nutmeg), chervil, caramelized sugar and natural celery flavour. […] The inhibitory meal was a corn porridge, prepared from 300 g ultrapure water, 7 g commercial vegetable bouillon powder and 50 g whole corn flour per serving (Farina per polenta integrale, Paolo Bassetti, Pianezzo, Switzerland) to achieve an absorption-inhibiting PA:Fe molar ratio of 5.0[31],[40], representative of a moderately inhibitory meal. Whole corn flour has a phytic acid content of about 1–2%, which is higher than in wheat (0.9%) and rice (0.7%)[12],[41]. Test meals were prepared the day before each feeding and stored in individual portions in a refrigerator overnight. On the day of administration, test meals were heated in a microwave oven. The pre-weighed vials containing the labeled iron compounds were added to the test meals and were rinsed 2 times with 2 mL of ultrapure water. […] Bouillon meals further contained 0.1 mg intrinsic iron and the inhibitory meals contained 0.8 mg Fe from the corn flour.

[3] = dogs, cited from earlier work
[4] = cited from earlier work; remark: listed apart in the source
[5] = PF < 40 µg/L, bouillon + inhibitory meal
[6] = PF ≥ 40 µg/L, bouillon + inhibitory meal

Description for Caco-2 cells: In parallel to the in vivo human study, in vitro bioaccessibility of the iron compounds was assessed using a Caco-2 cell assay by assessing the amount of ferritin formed in response to the exposure to different digests. Iron fortified bouillon and bouillon with whole corn flour were prepared following the same procedure reported for the human study using [^58Fe]-PA-HCP, [^57Fe]-PP and [^54Fe]-SO4 at the level of 2.1 mg iron/3.3 g of bouillon mass through dry mixing. The resulting fortified bouillon mass was split in five fractions. Three fractions were analysed to assess iron homogeneity in the sample via Inductively Coupled Plasma Optical Emission Spectrometry (ICP-OES) as reported earlier[48] and the remaining two fractions were sent to USDA-ARS Robert Holley Center for Agriculture and Health (Ithaca, NY, USA) to determine in vitro fractional bioaccessibility (IVFBA). […]
In vitro relative bioaccessibility (IVRBA) of iron from the 2 meals with the 3 iron compounds was calculated based on ferritin formation in the Caco-2 cells: Invitrorelativebioaccessibility(IVRBA)=ngferrittinoffortifiedsample/mgproteinoffortifiedsample/ngferrittinofsamplefortifiedwith[^54Fe]SO4/mgproteinofsamplefortifiedwith[^54Fe]SO4×100
In the in vitro study, the IVFBAs were also approximately log normally distributed and analysed by robust ANOVA. […]

O=P([O-])([O-])OP(=O)([O-])[O-].O=P([O-])([O-])OP(=O)([O-])[O-].O=P([O-])([O-])OP(=O)([O-])[O-].[Fe+3].[Fe+3].[Fe+3].[Fe+3] [FePP, Ferric pyrophosphate]
RBV ([1]; fortified bouillon cubes, mean PF of participants 9.4 µg/L): 13%
factor (FIA, bouillon vs bouillon + inhibitory meal) ([2]; PF < 40 µg/L): 6.7
factor (RBV, bouillon + inhibitory meal vs bouillon) ([2]; PF < 40 µg/L): 1.2
FIA, geo-mean ([2]; PF < 40 µg/L, bouillon): 1.9%
RBV, geo-mean ([2]; PF < 40 µg/L, bouillon): 5.8%
FIA, geo-mean [2, 5]: 0.3%
RBV, geo-mean [2, 5]: 7.1%
factor (FIA, bouillon vs bouillon + inhibitory meal) ([2]; PF ≥ 40 µg/L): 6.2
factor (RBV, bouillon + inhibitory meal vs bouillon) ([2]; PF ≥ 40 µg/L): 0.9
FIA, geo-mean ([2]; PF ≥ 40 µg/L, bouillon): 1.7%
RBV, geo-mean ([2]; PF ≥ 40 µg/L, bouillon): 8.8%
FIA, geo-mean [2, 6]: 0.3%
RBV, geo-mean [2, 6]: 8.3%
Factor by which FIA is lower in the inhibitory meal compared to bouillon ([2]; all participants): 5.9
Factor by which RBV is higher in the inhibitory meal compared to bouillon ([2]; all participants): 1.2

O=P(O)(O)OC1C(OP(=O)(O)O)C(OP(=O)(O)O)C(OP(=O)(O)O)C(OP(=O)(O)O)C1OP(=O)(O)O.[Fe+3] (stereo not drawn) [monoferric phytate]
iron absorption ([1]; humans): absorbed at least as well as the common pool of non-heme dietary iron
absorption ([3]; added to meals): equal to the major pool of dietary inorganic iron
bioavailability [3]: highly bioavailable
relative biological value of iron ([4]; rat study): equivalent to common iron fortificants such as ferrous ammonium sulfate
bioavailability ([4]; rats): highly bioavailable

Diphosphate sodium salt
fractional absorption ([1]; bouillon, with the diphosphate added (4.4% without)): 6.4%
relative bioavailability ([1]; in vivo): 13–23%

ferrous sulfate [FeSO4]
Factor by which FIA is lower in the inhibitory meal compared to bouillon ([2]; in vivo): 6.8
In vitro fractional bioaccessibility (IVFBA), geo-mean (Caco-2 cells): 9.6%
